± gives the expanded uncertainty stated by the source.
Conditions: for surface tension liquid-gas: Drop weight; for mass density: 101.33 kPa, Liquid

C[n+]1ccn(CCCN)c1.F[B-](F)(F)F [1-(3-aminopropyl)-3-methyl-1H-imidazolium tetrafluoroborate]
surface tension liquid-gas (293.15 K): 47.2 ± 0.5 mN/m | mass density (293.15 K): 1358.01 ± 1.8 kg/m3 | surface tension liquid-gas (298.15 K): 47.1 ± 0.5 mN/m | mass density (298.15 K): 1354.6 ± 1.7 kg/m3 | surface tension liquid-gas (303.15 K): 46.4 ± 0.5 mN/m | mass density (303.15 K): 1349.29 ± 1.7 kg/m3 | surface tension liquid-gas (308.15 K): 46.2 ± 0.5 mN/m | mass density (308.15 K): 1345.68 ± 1.7 kg/m3 | surface tension liquid-gas (313.15 K): 46.1 ± 0.5 mN/m | mass density (313.15 K): 1343.18 ± 1.7 kg/m3 | surface tension liquid-gas (318.15 K): 45.4 ± 0.5 mN/m | mass density (318.15 K): 1336.97 ± 1.7 kg/m3 | surface tension liquid-gas (323.15 K): 45.2 ± 0.5 mN/m | mass density (323.15 K): 1333.57 ± 1.7 kg/m3 | surface tension liquid-gas (328.15 K): 44.8 ± 0.5 mN/m | mass density (328.15 K): 1328.96 ± 1.6 kg/m3 | surface tension liquid-gas (333.15 K): 44.6 ± 0.5 mN/m | mass density (333.15 K): 1325.35 ± 1.6 kg/m3 | surface tension liquid-gas (338.15 K): 44.1 ± 0.5 mN/m | mass density (338.15 K): 1321.05 ± 1.6 kg/m3 | surface tension liquid-gas (343.15 K): 43.8 ± 0.5 mN/m | mass density (343.15 K): 1317.25 ± 1.6 kg/m3 | surface tension liquid-gas (348.15 K): 43.4 ± 0.5 mN/m | mass density (348.15 K): 1313.04 ± 1.6 kg/m3 | surface tension liquid-gas (353.15 K): 43.1 ± 0.5 mN/m | mass density (353.15 K): 1309.44 ± 1.6 kg/m3

Cn1cc[n+](CCN)c1.F[B-](F)(F)F [3-(2-aminoethyl)-1-methyl-1H-imidazolium tetrafluoroborate]
surface tension liquid-gas (293.15 K): 53.8 ± 0.5 mN/m | mass density (293.15 K): 1427.12 ± 2 kg/m3 | surface tension liquid-gas (298.15 K): 53.5 ± 0.5 mN/m | mass density (298.15 K): 1422.31 ± 2 kg/m3 | surface tension liquid-gas (303.15 K): 53.2 ± 0.5 mN/m | mass density (303.15 K): 1418.96 ± 2 kg/m3 | surface tension liquid-gas (308.15 K): 52.4 ± 0.5 mN/m | mass density (308.15 K): 1413.23 ± 2 kg/m3 | surface tension liquid-gas (313.15 K): 52 ± 0.5 mN/m | mass density (313.15 K): 1409.18 ± 1.9 kg/m3 | surface tension liquid-gas (318.15 K): 51.5 ± 0.5 mN/m | mass density (318.15 K): 1404.69 ± 1.9 kg/m3 | surface tension liquid-gas (323.15 K): 51.3 ± 0.5 mN/m | mass density (323.15 K): 1401.78 ± 1.9 kg/m3 | surface tension liquid-gas (328.15 K): 50.8 ± 0.5 mN/m | mass density (328.15 K): 1395.42 ± 1.9 kg/m3 | surface tension liquid-gas (333.15 K): 50.3 ± 0.5 mN/m | mass density (333.15 K): 1391.77 ± 1.9 kg/m3 | surface tension liquid-gas (338.15 K): 50.2 ± 0.5 mN/m | mass density (338.15 K): 1388.54 ± 1.9 kg/m3 | surface tension liquid-gas (343.15 K): 49.8 ± 0.5 mN/m | mass density (343.15 K): 1384.79 ± 1.9 kg/m3 | surface tension liquid-gas (348.15 K): 49.4 ± 0.5 mN/m | mass density (348.15 K): 1380.94 ± 1.9 kg/m3 | surface tension liquid-gas (353.15 K): 48.8 ± 0.5 mN/m | mass density (353.15 K): 1375.11 ± 1.8 kg/m3

— the NIST ThermoML archive (doi:10.1021/je200068x)
